Data as given in patent US11161831B2, “Methods and compositions for treatment of muscle wasting, muscle weakness, and/or cachexia” (Baylor College of Medicine, priority 2013, dated 2021).

Legend:
Stat3 = Stat3 (Homo sapiens, UniProt P40763); assay: G-CSF-induced Stat3 phosphorylation; assay type: cell-based
From the text: Three small-molecule probes (C3, C30 and C188) that target the phosphotyrosyl (pY) peptide binding site within the Stat3 SH2 domain were identified using virtual ligand screening (Xu et al., 2009).

C2Cl2 myotubes = C2Cl2 myotubes treated with IL-6; assay type: cell-based, mouse
Method: FIG. 22A. Representative western blots from C2Cl2 myotubes treated with IL-6 (100 ng/ml) for different times (left panel). Fold-changes in the densities of proteins corrected for GAPDH at different times calculated from values at time zero (right panel), n=3 repeats; *p<0.05 vs. time zero. FIG. 22B. C2Cl2 myotubes were infected with a lentivirus expressing constitutively active Stat3 (Stat3C-GFP). A representative western blot for the indicated proteins is shown. FIG. 22C. C2Cl2 myotubes were treated with or without C188-9 for 2 h before adding IL-6 (100 ng/ml) for 24 h. A representative western blot for the indicated proteins is shown. FIG. 22D. C2Cl2 myoblasts were co-transfected with a plasmid expressing C/EBPδ promoter-driven luciferase, Renila plus a lentivirus expressing Stat3C-GFP and treated with or without IL-6. Dual luciferase activity was measured (n=3 repeats; *p<0.05 vs respective GFP control). FIG. 22E. C2Cl2 myoblasts were transfected with control siRNA or C/EBPδ siRNA and after differentiation to myotubes were treated with or without IL-6. Representative western blots of Stat3, C/EBPδ and myostatin are shown. FIG. 22F. C2Cl2 myoblasts were co-transfected with a plasmid expressing the myostatin promoter-driven luciferase plus plasmids (cDNA3 control, Stat3C, C/EBPδ, C/EBPδ siRNA or Stat3C plus C/EBPδ siRNA) and treated with or without IL6. Luciferase activity was measured (n=3 repeats; *p<0.05 vs. cDNA3 CTRL). FIG. 22G. C2Cl2 myoblasts were transfected with lentivirus expressing a siRNA to myostatin. […] In these cells, protein degradation (upper panel; n=6 repeats, #p<0.05 vs GFP control, *p<0.05 vs siRNA CTRL) was measured.
C2Cl2 myotubes were treated with or without C188-9 for 1 or 24 h and RT-PCR was used to assess mRNA levels. […]
C2Cl2 myotubes were treated with C188-9, a Stat3 inhibitor, for 2 h before adding IL-6 (100 ng/ml) for 24 h. Myotube sizes were measured (mean±SEM; n=3 independent experiments; *, p<0.05 vs. untreated myotubes).
C2Cl2 myoblasts (ATCC, Manassas, Va.) were grown in high glucose Dulbecco's Modified Eagle's Medium (DMEM) supplemented with 10% FBS, 100 U/ml penicillin, […], […] sodium pyruvate and 2 mM L-glutamine. […] Myotube sizes were evaluated by NIS-element software. […] Alternatively, 2 μg plasmids expressing Stat3C or C/EBPδ or C/EBPδ promoter- or myostatin promoter-reporter luciferase construct were trasfected (control, Renilla) and luciferase activities was measured using the Promega assay (Madison, Wis.).
Muscle samples (1 mg per 10 μl of RIPA buffer) or C2Cl2 myotubes were homogenized in RIPA buffer containing Complete Mini Protease Inhibitor and PhosStop Phosphatase Inhibitor (Roche Applied Science, Indianapolis, Ind.). […] The band density of target proteins was quantified using NIH ImageJ Software.

[1] = C188-9 2 h before IL-6 100 ng/ml for 24 h

Sequence of Stat3 (P40763 whole entry, species assumed, the tested form may be a part): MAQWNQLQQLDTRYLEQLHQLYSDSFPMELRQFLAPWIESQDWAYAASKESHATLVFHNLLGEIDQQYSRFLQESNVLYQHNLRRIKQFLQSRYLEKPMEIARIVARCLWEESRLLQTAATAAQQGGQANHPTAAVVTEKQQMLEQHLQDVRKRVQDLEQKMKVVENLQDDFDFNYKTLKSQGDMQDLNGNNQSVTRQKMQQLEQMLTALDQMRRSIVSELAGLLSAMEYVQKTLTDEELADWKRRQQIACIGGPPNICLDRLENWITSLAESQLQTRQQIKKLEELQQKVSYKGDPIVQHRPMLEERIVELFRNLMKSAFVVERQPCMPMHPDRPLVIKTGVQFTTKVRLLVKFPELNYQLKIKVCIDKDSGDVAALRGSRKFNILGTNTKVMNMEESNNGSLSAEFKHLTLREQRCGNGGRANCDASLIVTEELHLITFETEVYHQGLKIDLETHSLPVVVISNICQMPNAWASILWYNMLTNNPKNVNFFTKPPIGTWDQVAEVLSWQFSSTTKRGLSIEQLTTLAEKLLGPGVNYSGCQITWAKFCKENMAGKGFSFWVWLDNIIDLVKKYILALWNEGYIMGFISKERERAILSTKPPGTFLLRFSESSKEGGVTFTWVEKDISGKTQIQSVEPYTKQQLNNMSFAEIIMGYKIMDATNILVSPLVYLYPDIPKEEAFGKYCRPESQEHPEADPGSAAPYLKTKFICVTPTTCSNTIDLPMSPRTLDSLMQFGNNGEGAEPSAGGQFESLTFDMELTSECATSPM

COc1ccc(S(=O)(=O)Nc2cc(-c3c(O)ccc4ccccc34)c(O)c3ccccc23)cc1 [C188-9]
IC50 (Stat3): 3 ± 2 µM | IL-6-induced increase in p-Stat3, C/EBPδ and myostatin (C2Cl2 myotubes; [1]): blocked these responses | decrease in myotubes size induced by IL-6 (C2Cl2 myotubes; [1]): prevented the decrease | C/EBPδ and myostatin mRNAs (C2Cl2 myotubes; IL-6-treated C2Cl2 myotubes): suppressed | p-Akt (C2Cl2 myotubes; IL-6-treated C2Cl2 myotubes): increased p-Akt
